Assays:
[1] = molecular target: T1, Jack bean Urease (Canavalia ensiformis, UniProt P07374); assay: biochemical
T1 construct: purchased Sigma
Procedure: Urease activity was obtained by measuring ammonia production using the indophenol method as described by Bankeu et al., (2017). […] Reaction mixtures with 25 μL of enzyme (Jack bean Urease bought from Sigma) solution and 55 μL of buffers containing 100 mM urea were incubated with 5 μL of compounds 1—4 (1 mM concentration) at 30 °C for 15 min in 96-well plates. In fact, 45 μL each of phenol reagent (1% w/v phenol and 0.005% w/v sodium nitroprusside) and 70 μL of alkali reagent (0.5% w/v NaOH and 0.1% active chloride NaOCl) were added to each well. The absorbance at 630 nm was recorded after 50 min, using a microplate reader (Molecular Device, USA). All reactions were performed in triplicate in a final volume of 200 μL. The results (change in absorbance per min) were processed by using Soft Max Pro software (Molecular Device, USA). All the assays were performed at pH 8.2 (0.01 M K2HPO4·3H2O, 1 mM EDTA and 0.01 M LiCl). Percentage inhibitions were calculated from the formula (Eq. 1):1 Urease inhibition%=100-ODtest/ODcontrol×100 where OD stands for optical density.
Urease inhibition percentages were used to determine the concentration that inhibit 50% of urease activity (IC50) using GraphPad Prism 5.0, USA.
The resulting data are shown as mean ± SD of three independent assays. One way one analysis of variance (ANOVA) was carried out for the determination of difference between groups (GraphPad Prism 5.0, USA). […] was considered as significant.

T1 sequence (P07374 whole entry, looked up): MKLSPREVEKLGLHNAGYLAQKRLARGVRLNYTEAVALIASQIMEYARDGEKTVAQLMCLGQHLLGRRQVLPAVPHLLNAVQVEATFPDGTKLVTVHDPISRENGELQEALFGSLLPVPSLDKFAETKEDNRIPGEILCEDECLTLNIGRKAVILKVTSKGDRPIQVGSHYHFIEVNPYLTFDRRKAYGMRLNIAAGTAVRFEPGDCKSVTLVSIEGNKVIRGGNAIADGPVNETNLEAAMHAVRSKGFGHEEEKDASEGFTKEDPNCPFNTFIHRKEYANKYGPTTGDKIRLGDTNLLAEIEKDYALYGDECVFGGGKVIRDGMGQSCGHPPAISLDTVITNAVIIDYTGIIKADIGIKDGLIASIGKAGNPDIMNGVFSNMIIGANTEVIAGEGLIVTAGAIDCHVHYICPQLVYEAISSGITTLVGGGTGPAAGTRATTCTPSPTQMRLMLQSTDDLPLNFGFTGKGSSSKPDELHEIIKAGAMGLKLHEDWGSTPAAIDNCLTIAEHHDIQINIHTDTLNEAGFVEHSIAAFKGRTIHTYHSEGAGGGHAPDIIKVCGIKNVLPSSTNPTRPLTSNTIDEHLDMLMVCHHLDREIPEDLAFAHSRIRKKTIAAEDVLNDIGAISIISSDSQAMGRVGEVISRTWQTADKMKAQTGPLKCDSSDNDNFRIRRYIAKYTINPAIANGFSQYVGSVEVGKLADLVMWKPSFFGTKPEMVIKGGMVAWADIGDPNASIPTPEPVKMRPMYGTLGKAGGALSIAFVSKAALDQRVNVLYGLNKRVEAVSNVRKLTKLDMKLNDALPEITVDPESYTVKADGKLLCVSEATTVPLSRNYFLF

`CC1(C)CC[C@]2(C)CC[C@]3(C)C(=CCC4[C@@]5(C)CCC(=O)C(C)(C)[C@@H]5CC[C@]43C)[C@H]2C1` (stereo partly drawn) [Compound 1, β-Amyrenone] gave an IC50 [1] of 14.5 ± 0.21 µM.
In the case of `CC1(C)CCC2(C)CCC3(C)C(=CCC4C5(C)CC/C(=N\Nc6ccc([N+](=O)[O-])cc6[N+](=O)[O-])C(C)(C)C5CCC43C)C2C1` (centres unmarked) [Compound 2, (E)-1-(2,4-Dinitrophenyl)-2-(4,4,6a,6b,8a,11,11,14b-octamethyl-1,4,4a,5,6,6a,6b,7,8,8a,9,10,11,12,12a,14,14a,14b-octadecahydropicen-3(2H)-ylidene)hydrazine], the IC50 [1] is reported as 24.6 ± 0.17 µM and the melting point is reported as 260 °C.
With `COc1ccc2[nH]c3c(c2c1)C[C@]1(C)C2CC=C4[C@H]5CC(C)(C)CC[C@]5(C)CC[C@@]4(C)[C@]2(C)CC[C@H]1C3(C)C` (stereo partly drawn) [Compound 3, (4aR,6aS,6bR,8aR,15aR,17bS)-13-Methoxy-2,2,4a,6a,6b,9,9,15a-octamethyl-2,3,4,4a,5,6,6a,6b,7,8,8a,9,10,15,15a,15b,16,17b-octadecahydro-1H-chryseno[2,1-b]carbazole] the IC50 [1] was 22.2 ± 0.9 µM.
`CC1(C)CC[C@]2(C)CC[C@]3(C)C(=CCC4[C@@]5(C)Cc6c([nH]c7ccccc67)C(C)(C)[C@@H]5CC[C@]43C)[C@H]2C1` (stereo partly drawn) [Compound 4, (4aR,6aS,6bR,8aR,15aR,17bS)-2,2,4a,6a,6b,9,9,15a-Octamethyl-2,3,4,4a,5,6,6a,6b,7,8,8a,9,10,15,15a,15b,16,17b-octadecahydro-1H-chryseno[2,1-b]carbazole] gave an IC50 [1] of 17.9 ± 0.45 µM.

Source: publication PMC6328428, “Synthesis, Urease Inhibition and Molecular Modelling Studies of Novel Derivatives of the Naturally Occurring β-Amyrenone” (Natural Products and Bioprospecting, 2018)
